Test results: patent publication US7943610B2, “Pyrazolopyridine-1,4-diamines and analogs thereof” (3M Innovative Properties Company, priority 2005, dated 2011)

## CCCn1nc2c(N)nc3ccccc3c2c1N [Example 1, 2-Propyl-2H-pyrazolo[3,4-c]quinoline-1,4-diamine]
  melting point: 253 °C (dec.)

## CCCn1nc2c(N)nc3ccccc3c2c1NC(C)C [Example 36, N^1-Isopropyl-2-propyl-2H-pyrazolo[3,4-c]quinoline-1,4-diamine]
  melting point: 199 to 200 °C

## CCCn1nc2c(N)nc3ccccc3c2c1NCCC1CCN(C(C)=O)CC1 [Example 6, N^1-[2-(1-Acetylpiperidin-4-yl)ethyl]-2-propyl-2H-pyrazolo[3,4-c]quinoline-1,4-diamine]
  melting point: 203 to 206 °C

## CCCn1nc2c(N)nc3ccccc3c2c1NCc1ccccc1 [Example 37, N^1-Benzyl-2-propyl-2H-pyrazolo[3,4-c]quinoline-1,4-diamine]
  melting point: 160 to 161 °C

## CCCn1nc2c(N)nc3ccccc3c2c1NCCC1CCN(C(=O)NC(C)C)CC1 [Example 5, 4-{2-[(4-Amino-2-propyl-2H-pyrazolo[3,4-c]quinolin-1-yl)amino]ethyl}-N-isopropylpiperidine-1-carboxamide]
  melting point: 168 to 170 °C

## CCCn1nc2c(N)nc3ccccc3c2c1NCC [Example 2, N^1-Ethyl-2-propyl-2H-pyrazolo[3,4-c]quinoline-1,4-diamine]
  melting point: 193 to 194 °C

## CCCn1nc2c(N)nc3ccccc3c2c1NC [Example 35, N^1-Methyl-2-propyl-2H-pyrazolo[3,4-c]quinoline-1,4-diamine]
  melting point: 200 to 201 °C
